Test results from the supplement of paper PMC10307832.

How the values were obtained:
Assay in all cases: relative viability (nuclei count vs DMSO), 5 days (fraction); higher = more cells survive
[1] = compound: NS(=O)(=O)OC[C@@H]1C[C@@H](n2ccc3c(N[C@H]4CCc5ccccc54)ncnc32)C[C@@H]1O [MLN4924] + CC(=O)Nc1cccc(-n2c(=O)n(C3CC3)c(=O)c3c(Nc4ccc(I)cc4F)n(C)c(=O)c(C)c32)c1 [Trametinib] (partner 0.02 µM)
Method in brief: (§1)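 Relative viability equals treated-well nuclei counts divided by vehicle-well nuclei counts. Counts came from 4× images of lung cancer cell lines grown in 1536-well plates for 5 days after pin-tool dosing on the day after seeding. Dosing used one drug alone or a fixed anchor-drug dose plus five library-drug doses (not always all listed) in √10 steps, and values are medians of duplicate plates.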

[2] = compound: C1CC(C1)(C(=O)O)C(=O)O.[NH2-].[NH2-].[Pt+2] [Carboplatin] + Nc1nc2[nH]cc(CCc3ccc(C(=O)N[C@@H](CCC(=O)O)C(=O)O)cc3)c2c(=O)[nH]1 [Pemetrexed] (partner 0.2 µM)
Method in brief: as §1

[3] = compound: C1CC(C1)(C(=O)O)C(=O)O.[NH2-].[NH2-].[Pt+2] [Carboplatin] + NC(=O)Nc1cc(-c2cccc(F)c2)sc1C(=O)N[C@H]1CCCNC1 [AZD7762] (partner 0.2 µM)
Method in brief: as §1

[4] = compound: C1CC(C1)(C(=O)O)C(=O)O.[NH2-].[NH2-].[Pt+2] [Carboplatin] + Nc1ncn([C@H]2C[C@H](O)[C@@H](CO)O2)c(=O)n1 [Decitabine] (partner 2 µM)
Method in brief: as §1

Row | Cell Line | relative viability ([1]; first compound 0.04 µM) | relative viability ([1]; first compound 0.1265 µM) | relative viability ([1]; first compound 0.4 µM) | relative viability ([1]; first compound 1.265 µM) | relative viability ([1]; first compound 4 µM) | relative viability ([2]; first compound 0.08 µM) | relative viability ([2]; first compound 0.253 µM) | relative viability ([2]; first compound 0.8 µM) | relative viability ([2]; first compound 2.53 µM) | relative viability ([2]; first compound 8 µM) | relative viability ([3]; first compound 0.08 µM) | relative viability ([3]; first compound 0.253 µM) | relative viability ([3]; first compound 0.8 µM) | relative viability ([3]; first compound 2.53 µM) | relative viability ([3]; first compound 8 µM) | relative viability ([4]; first compound 0.08 µM) | relative viability ([4]; first compound 0.253 µM) | relative viability ([4]; first compound 0.8 µM) | relative viability ([4]; first compound 2.53 µM) | relative viability ([4]; first compound 8 µM)
1 | NCI-H2085 | 0.486 | 0.509 | 0.575 | 0.559 | 0.293 | 1.03 | 0.846 | 0.974 | 0.948 | 0.899 | 1.02 | 1.01 | 0.973 | 0.995 | 0.909 | 0.548 | 0.57 | 0.506 | 0.544 | 0.474
2 | NCI-H2087 | 0.23 | 0.217 | 0.291 | 0.129 | 0.0965 | 0.619 | 0.647 | 0.618 | 0.632 | 0.604 | 1.38 | 1.48 | 1.2 | 1.12 | 0.939 | 0.242 | 0.28 | 0.307 | 0.227 | 0.237
3 | NCI-H2126 | 0.576 | 0.563 | 0.484 | 0.329 | 0.243 | 0.759 | 0.64 | 0.724 | 0.698 | 0.647 | 0.972 | 1.06 | 1.05 | 1.03 | 0.931 | 0.607 | 0.573 | 0.544 | 0.59 | 0.51
4 | NCI-H2170 | 0.879 | 0.537 | 0.467 | 0.155 | 0.126 | 0.246 | 0.252 | 0.265 | 0.286 | 0.236 | 0.944 | 0.934 | 0.995 | 0.724 | 0.385 | 0.507 | 0.476 | 0.465 | 0.428 | 0.343
5 | NCI-H2342 | 0.834 | 0.757 | 0.759 | 0.727 | 0.54 | 0.786 | 0.844 | 0.791 | 0.834 | 0.762 | 0.57 | 0.595 | 0.55 | 0.439 | 0.484 | 0.675 | 0.729 | 0.661 | 0.721 | 0.594
6 | NCI-H2347 | 0.312 | 0.32 | 0.284 | 0.265 | 0.293 | 0.432 | 0.452 | 0.403 | 0.407 | 0.525 | 0.837 | 0.741 | 0.805 | 0.752 | 0.798 | 0.615 | 0.428 | 0.621 | 0.653 | 0.552
7 | NCI-H2405 | 0.882 | 0.893 | 0.621 | 0.292 | 0.254 | 1.16 | 1.03 | 1.05 | 0.977 | 0.737 | 0.832 | 0.757 | 0.757 | 0.646 | 0.454 | 0.705 | 0.784 | 0.809 | 0.659 | 0.442
8 | NCI-H3122 | 0.25 | 0.162 | 0.204 | 0.136 | 0.098 | 0.198 | 0.202 | 0.189 | 0.191 | 0.183 | 1.04 | 1.01 | 0.946 | 0.974 | 0.885 | 0.49 | 0.433 | 0.437 | 0.397 | 0.436
9 | PC-3 [JPC-3] | 0.625 | 0.727 | 0.495 | 0.538 | 0.374 | 1.28 | 0.986 | 1.02 | 0.939 | 0.889 | 1.04 | 0.732 | 0.836 | 0.706 | 0.553 | 0.835 | 0.75 | 0.795 | 0.734 | 0.7
10 | PC-14 | 1.01 | 0.624 | 0.259 | 0.0838 | 0.0619 | 0.127 | 0.131 | 0.143 | 0.11 | 0.0992 | 0.541 | 0.316 | 0.361 | 0.314 | 0.202 | 0.179 | 0.209 | 0.165 | 0.119 | 0.0887
11 | RERF-LC-KJ | 0.8 | 0.66 | 0.365 | 0.215 | 0.203 | 0.492 | 0.475 | 0.479 | 0.458 | 0.438 | 1.14 |  | 1.04 | 0.995 | 0.828 | 0.627 | 0.665 | 0.646 | 0.574 | 0.422
12 | SW 900 |  | 0.764 | 0.449 | 0.291 | 0.218 | 0.495 | 0.468 | 0.488 | 0.525 | 0.496 | 0.651 | 0.689 | 0.531 | 0.533 | 0.542 | 0.431 | 0.361 | 0.42 | 0.395 | 0.377
